Source: US20130131174A1, “INJECTABLE PHARMACEUTICAL FORMULATION OF MELPHALAN” (ERIOCHEM, priority 2010, published 2013)
Where “and” joins values, the source holds several entries; their conditions need not be identical. Equal values may be shown once.

What was measured:
[1] = Stability at 25° C. of melphalan solution at 10 mg/ml in glacial acetic acid, purity by HPLC; assay type: physicochemical
Method: To study stability at 25° C. of a melphalan solution at 10 mg/ml in glacial acetic acid in the absence of hydrochloric acid, 830 mg base melphalan Lot 20-01-2010 were used and the results of the following table were obtained. This solution is not comprised in the present invention, it is only introduced with the aim of comparing this option without hydrochloric acid presenting higher concentration of impurities than the composition of lyophilized melphalan on the invention.

[2] = Purity by HPLC of melphalan lyophilizates vs. their API (degradation on lyophilization)
Method: Purity determinations of melphalan in its different compositions were analyzed by HPLC applying the method Pharmaeuropa, Vol 21, No. 3, July 2009, pages 425-28, for the following examples:
(§1) Simultaneously, the melphalan solution was filtered and measured in doses to 10 mg/ml in glacial acetic acid with 3 moles of hydrochloric acid from hydrochloric acid at 37% w/we, which used base melphalan Lot 20-01-2010, in 5 ml vials of the tube flask type, 20 mm mouth, containing 2 ml solution, and it was lyophilized in a Virtis Advantage Lyophilizer, freezing at −50° C. for 5 hours, starting vacuum at the same temperature, then bringing the shelf to −20° C., then to 0° C. and finally drying at 5° C., with a final vacuum of 25 microbars.
as §1, with “acid,” for “acid with 3 moles of hydrochloric acid from hydrochloric acid at 37% w/we,”, “25°” for “5°”

[3] = Solubility of melphalan in pharmaceutical organic solvents; assay type: physicochemical; details: for Solubility in DMSO: hydrochlorate prepared by addition of three moles of hydrochloric acid at 37%
Method: To investigate the possibility of elaborating malphalan lyophilizates from pharmaceutical organic solvents, it was determined that base melphalan as well as its hydrochlorate are not soluble in terbutylic alcohol. Instead, even though base malphalan is not soluble in DMSO, its hydrochlorate is soluble up to close to 10% p/v, prepared by the addition of three moles of hydrochloric acid as a concentrated acid at 37%.
Base melphalan is soluble in glacial acetic acid, preferably free of acetic anhydride, in up to close to 10% p/v; likewise as melphalan hydrochlorate, mixtures of acetic acid and aqueous solution of hydrochloric acid at 37% p/p to dissolve base melphalan may also be used, or else hydrogen chloride solution in glacial acetic acid.

[4] = pH of lyophilized melphalan after reconstitution, dilution in normal saline solution and neutralization with trisodium citrate; assay type: physicochemical; details: 5 mg/ml of melphalan hydrochlorate with 2.5 molecules of hydrogen chloride per melphalan mol
Method: (§2) A vial containing the solid composition of lyophilized melphalan was reconstituted with 3.2 ml of normal saline solution, producing a melphalan solution at 5.40 mg/ml of pH 1.80. An aliquot of 0.8 ml was taken and added with another of 4.2 ml of normal saline solution, producing 0.86 mg/ml of pH 2.33. It was neutralized with 0.20 ml of a solution of 100 mg/ml of trisodium citrate dihydrate, producing a final pH 5.44.
as §2, with “6.84” for “5.40”, “2.20.” for “1.80.”, “1.09” for “0.86”, “2.20.” for “2.33.”, “of 5.59.” for “5.44.”

[5] = cited from earlier work
[6] = API before dissolution, listed as API
[7] = API or lyophilizate, listed as API
[8] = API or lyophilizate, listed as API-Mel 143-09

N[C@@H](Cc1ccc(N(CCCl)CCCl)cc1)C(=O)O [Melphalan, p-(bis-2-chloroethyl)-amino-L-phenylalanine]
Impurity C ([1]; API before dissolution): 0.02 % of area | Impurity D ([1]; API before dissolution): 0.09 % of area | Impurity F ([1]; API before dissolution): 0.05 % of area | Impurity G ([1]; API before dissolution): 2.05 % of area | Impurity I ([1]; API before dissolution): 0.03 % of area | Impurity J ([1]; API before dissolution): 0.11 % of area | Melphalan Purity ([1]; API before dissolution): 97.45 % of area | Total of Impurities ([1]; API before dissolution): 2.55 % of area | Max. Imp. Disposab [1, 6]: 0.02 (TRR 0.81) % of area and 0.04 % of area | Other Imp. Disposab [1, 6]: 0.04 (TRR 1.58) % of area and 0.02 % of area | Stability in solution of 10 mg/ml in acetic acid by HPLC ([1]; hours in solution at ambient temperature / 25° C.): perfectly stable | Impurity C ([2]; API or lyophilizate): <0.05 % w/w | Impurity F ([2]; API or lyophilizate): <0.05 % w/w | Impurity I ([2]; API or lyophilizate): <0.05 % w/w | Impurity D [2, 7]: 0.05% w/w and <0.05 % w/w | Impurity G [2, 7]: 1.04% w/w and 0.97% w/w | Impurity J [2, 7]: 0.05% w/w and <0.05 % w/w | Máx. Imp. Dispos [2, 7]: 0.05% w/w and 0.07% w/w | Total of Impurities [2, 7]: 1.19% w/w and 1.04% w/w | Impurity D [2, 8]: 0.1 % w/w | Impurity G [2, 8]: 0.9 % w/w | Máx. Imp. Dispos [2, 8]: 0.1 % w/w | Total of Impurities [2, 8]: 1.2 % w/w | Degradation of the API on non-aqueous lyophilization ([2]; from acetic acid with three moles of hydrochloric acid per mol): lower than 0.2 % in area | Solubility in terbutylic alcohol [3]: not soluble | Solubility in DMSO ([3]; listed as base malphalan): not soluble | Solubility in glacial acetic acid ([3]; preferably free of acetic anhydride): ~10 % p/v

N[C@@H](Cc1ccc(N(CCCl)CCCl)cc1)C(=O)O [melphalan hydrochlorate]
pH of an aqueous solution [4]: approximately 1.9 | Solubility in DMSO ([3]; listed as its hydrochlorate): ~10 % p/v

CC(O)CO (stereo not shown) [propylene glycol]
Half plasma life ([5]; individuals with normal renal function): 5 h | Excreted by kidneys ([5]; rest metabolized by the liver): 12-45%
